Reference: publication PMC6367500, “18β-glycyrrhetyl-3-O-sulfate would be a causative agent of licorice-induced pseudoaldosteronism” (Scientific Reports, 2019)

Tests used:
anti-3MGA-mAb = experiment: Competitive ELISA using anti-3MGA-mAb; format: binding; conditions: specificity to 3MGA calibrated to 100%, n = 1
Protocol: Figure 5 Dot-blot analysis and ELISA detection range of GL metabolites using anti-3MGA-monoclonal antibody (mAb). GL metabolites (1 µg each) were spotted on a PES membrane, and colored using an anti-3MGA-mAb (A). Competitive ELISA using anti-3MGA-mAb for GL metabolites was performed. Data are represented from a single analysis (n = 1) (B). […] Data are represented as mean ± S.D. (n = 3). Two-way ANOVA indicated a significant difference between GA and 3 (F1,36 = 4441, P < 0.001), concentrations (F8,36 = 315, P < 0.001), and their interactions (F8,36 = 281, P < 0.001). The calibrated line for the absorbance-concentration profile of 3 was calculated by the linear least-squares method, and the regression formula is shown in graph (C).
When the specificity of the mAb to 3MGA was calibrated to 100%, the cross-reactivity for GL, GA, 1, 2, and 3 was 0.23%, 2.2%, 4.8%, 4.0%, and 23%, respectively. […] We confirmed the selectivity of the anti-3MGA-mAb in discriminating between 3 and GA and established the detectable measurement range for 3 in this ELISA system.
3MGA-HSA (1 µg/ml in 50 mM carbonate buffer, pH 9.6) was added into a 96-well plate (Nagel Nunc, Penfield, NY, USA) (100 µl in a well) and incubated at 37 °C for 1 h. After the removal of 3MGA-HSA, the wells were washed three times with T-PBS (200 µl in a well). The wells were incubated with 300 µl in a well of 5% skim milk at 4 °C overnight. After the wells had been washed with T-PBS three times, the sample solution diluted with Can Get Signal® Solution 1 (Toyobo Co., Ltd., Osaka, Japan) (50 µl in a well) and anti-3MGA-mAb (1:4,000 dilution with Can Get Signal® Solution 1) (50 µl in a well) were added to the wells, and the plate was incubated at 37 °C for 1 h. After the wells had been washed with T-PBS three times, HRP-labeled goat anti-mouse IgG (Fc specific) antibody (Sigma, 1:20,000 dilution with Can Get Signal® Solution 2) was added into the wells (100 µl in a well) and the plate was incubated at 37 °C for 1 h. Next, the wells were washed with T-PBS three times and the substrate solution (3,3′,5,5′-tetramethylbensidine, TMB solution; Fujifilm Wako Pure Chemical Corporation, Osaka, Japan) was added to the wells (100 µl in a well), followed by incubation at room temperature for 5 min. Then, the stop solution (0.5 M sulfuric acid) was added to the wells (100 µl in a well) and the optical density was measured at 450 nm/630 nm.

[1] = Plasma and urine levels of GA metabolites in SD rats orally treated with GA (LC-MS/MS); format: in vivo; conditions: GA 0.20 g/kg orally; for concentration at 12 h: female, SD (Sprague-Dawley), rat, plasma, po, 0.2 g/kg
Protocol: (§1) Then, bile samples were collected for 4 h (E).
(§2) Female SD rats or EHBRs (9-week-old) were anesthetized by an intraperitoneal (i.p.) injection of urethane (1 g/kg) and their jugular veins were exposed. […] Feces were homogenized in phosphate-buffered saline (PBS; 0.15 M, pH 7.2), centrifuged (1.2 × 10^4 g, 10 min), and the supernatants were collected. After 1 week as a washout period, female SD rats were anesthetized by an i.p. injection of urethane (1 g/kg) and their biliary tract was cannulated. […] Aliquots (10 µl) of plasma, urine, homogenate of feces, or bile were mixed with 20 µl of subtilisin (0.91 U/ml) and incubated at 37 °C for 30 min, followed by the addition of 70 µl of astragaloside IV solution (1 µg/ml in ethanol containing 0.5% formic acid, used as internal standard), and kept at −20 °C for 30 min.

[2] = Fecal excretion of GA metabolites in SD rats injected i.v. with GA; format: in vivo; conditions: GA 0.2 mg/kg i.v.
Protocol: as §1, §2

SMILES	cross-reactivity of anti-3MGA-mAb (anti-3MGA-mAb) [%]	amount in accumulated urine collected 12 h after oral treatment [1]	detection in feces collected for 24 h [2]	time of plasma peak after oral treatment [1] [h]	concentration at 12 h [1] [nM]
CC1(C)[C@@H](O[C@@H]2O[C@H](C(=O)O)[C@@H](O)[C@H](O)[C@H]2O)CC[C@]2(C)[C@H]3C(=O)C=C4[C@@H]5C[C@@](C)(C(=O)O)CC[C@]5(C)CC[C@@]4(C)[C@]3(C)CC[C@@H]12 [3MGA, 3-monoglucuronyl glycyrrhetinic acid, reference compound]	100	below detectable levels	not found	–	–
CC1(C)[C@@H](O)CC[C@]2(C)[C@H]3C(=O)C=C4[C@@H]5C[C@@](C)(C(=O)O)CC[C@]5(C)CC[C@@]4(C)[C@]3(C)CC[C@@H]12 [GA, glycyrrhetinic acid, reference compound]	2.2	–	–	1	4700
CC1(C)[C@@H](OS(=O)(=O)O)CC[C@]2(C)[C@H]3C(=O)C=C4[C@@H]5C[C@@](C)(C(=O)O[C@@H]6O[C@H](C(=O)O)[C@@H](O)[C@H](O)[C@H]6O)C[C@H](O)[C@]5(C)CC[C@@]4(C)[C@]3(C)CC[C@@H]12 [compound 1, 22α-hydroxy-18β-glycyrrhetyl-3-O-sulfate-30-glucuronide]	4.8	below detectable levels	not found	–	–
CC1(C)[C@@H](OS(=O)(=O)O)CC[C@]2(C)[C@H]3C(=O)C=C4[C@@H]5C[C@@](C)(C(=O)O)C[C@H](O)[C@]5(C)CC[C@@]4(C)[C@]3(C)CC[C@@H]12 [compound 2, 22α-hydroxy-18β-glycyrrhetyl-3-O-sulfate]	4.0	below detectable levels	found	–	–
CC1(C)[C@@H](OS(=O)(=O)O)CC[C@]2(C)[C@H]3C(=O)C=C4[C@@H]5C[C@@](C)(C(=O)O)CC[C@]5(C)CC[C@@]4(C)[C@]3(C)CC[C@@H]12 [compound 3, 18β-glycyrrhetyl-3-O-sulfate]	23	0.03 nmol	found	–	300
